Test results: ChEMBL document CHEMBL1137265, “Macrolactin N, a new peptide deformylase inhibitor produced by Bacillus subtilis” (Bioorg Med Chem Lett, 2006)
In brackets after ≈: the same amount, converted by molar mass.

Key:
Escherichia coli = assay: Antibacterial activity against Escherichia coli KCTC 1924 by microdilution broth method; assay type: functional
Bacillus subtilis = assay: Antibacterial activity against Bacillus subtilis KCTC 1021 by microdilution broth method; assay type: functional
Staphylococcus aureus = assay: Antibacterial activity against Staphylococcus aureus RN4220 by microdilution broth method; assay type: functional
Peptide deformylase = molecular target: T1, Peptide deformylase (Staphylococcus aureus, UniProt P68826); assay: Inhibition of Staphylococcus aureus peptide deformylase in presence of substrate f-MAS
T1 sequence (P68826 whole entry): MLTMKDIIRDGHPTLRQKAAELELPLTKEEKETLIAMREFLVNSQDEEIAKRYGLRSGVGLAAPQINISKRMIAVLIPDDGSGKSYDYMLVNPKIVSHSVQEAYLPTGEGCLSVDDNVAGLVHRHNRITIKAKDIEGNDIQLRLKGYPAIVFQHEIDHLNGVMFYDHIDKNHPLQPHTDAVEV

MIC (Escherichia coli): 100 µg/mL (≈ 259 µM)
MIC50 (Bacillus subtilis): 100 µg/mL (≈ 259 µM)
MIC50 (Staphylococcus aureus): 100 µg/mL (≈ 259 µM)
IC50 (Peptide deformylase): 7.5 µM
SMILES: CC1CCC/C=C/CCC(=O)CCC/C=C\C=C\[C@@H](O)C/C=C/C=C\C(=O)O1 (some centres undefined)
